Reference: patent US20230276792A1, “SELECTIVE HERBICIDES BASED ON SUBSTITUTED ISOXAZOLIN CARBOXAMIDES AND CLOQUINTOCET-MEXYL” (Bayer Aktiengesellschaft, priority 2020, published 2023)

Experiments:
Type in all cases: in vivo
[1] = test system: spring barley, HORVS Montoya; assay: Tank-mix post-emergence crop damage, herbicide with and without safener cloquintocet-mexyl, greenhouse; set-up: key to Reduction [Difference]: damage without safener − damage with safener, % points (0–100% scale)
Method: (§1) Seeds of crops (spring wheat, TRZAS; spring barley, HORVS; maize, ZEAMA) were placed in sandy loam soil in peat pots, covered with soil and cultivated in a greenhouse under good growth conditions. Two to three weeks after sowing, the test plants were treated at the 1 to 3-leaf stage. The herbicide/safener active compound combinations according to the invention, formulated as wettable powders or emulsion concentrates, and, in parallel tests, the correspondingly formulated individual active compounds were sprayed onto the green parts of the plants in various dosages using an amount of water of 300 l/ha (converted).
(§2) The pots were returned under good growing conditions in a glasshouse and a visual assessment of herbicidal effects was made at intervals from 1 to 3 weeks after herbicide application (DAT=days after treatment). Assessment was on a percentage basis in comparison with untreated control plants (0%=no injury, 100%=complete kill).
(§3) Reduction [Difference]=herbicide damage without safener−herbicide damage with safener
(§4) Reduction [%]=(Reduction [Difference]*100)/herbicide damage without safener
(§5) a) Plant Species, Variety: HORVS Montoya, Safener (SAF): Cloquintocet-Mexyl

[2] = test system: spring wheat, TRZAS Triso; assay: as above; set-up: key to Reduction [Difference]: percentage points of damage: damage without safener minus damage with safener; settings: 21 DAT
Method: as §1, §2, §3, §4
(§6) b) Plant Species, Variety: TRZAS Triso, Safener (SAF): Cloquintocet-Mexyl

[3] = test system: spring wheat, TRZAS Triso; assay: Safener seed treatment, post-emergence herbicide application, crop damage; settings: 21 DAT; for HER effect + SAF [%] / Reduction [%]: cloquintocet-mexyl 0, 5 g a.i./kg seed; for HER effect [%]: without safener
Source text: (§7) For safener seed treatment trials, sufficient seed amounts of the respective crops (spring wheat (TRZAS); spring barley (HORVS)) were weighed into screw cap glass bottles with a minimum volume trice of the seeds.
(§8) As a first step, specified safeners formulated as wettable powder (WP) or wettable granules (WG) were weighed out for the required dosages (g a.i./kg seed), corresponding to the seed amounts. The safener amounts were mixed with a coloured slurry blind formulation type, pre-diluted with milk at 3.5% fat rate (25 mgs slurry formulation plus 2 ml milk per 10 grams of seed). A tube roller was used for coating. The solutions were gradually pipetted each on the rotating seeds followed by coating for min. 3 hours until all liquid had been soaked up by the seeds. Thereafter, the coated seeds were put flat on open trays for drying over night at room temperature.
(§9) Treated seeds were then placed into pots (7 cm diameter) on the surface of sandy loam, pressed down, flat covered with additional soil and finally covered with sandy soil, also pressed down, watered, and kept under good growth conditions in a greenhouse, until the plants had reached 2-leaf-stage (BBCH 12).
(§10) At that stage, post-emergence application of the specified herbicides was done on: • a) pot sets containing plants with safener-coated seeds as described above, • b) as a reference, pot sets of plants without seed treatment.
(§11) The herbicides were formulated as wettable powder (WP). Equivalent to the spray area, compound amounts were weighed out and diluted related to the water application rate (300 l/ha) to an aqueous suspension plus additive (1 l/ha MERO). Dosage related equivalents were conventionally sprayed on trays with the potted plants.
(§12) After application, the test plants were kept under good growth conditions in a greenhouse. Assessment timings were 10 and 21 days after treatment (DAT) with the herbicide, by visual scoring of the crop damage in % (comparison of untreated with treated plants, either sprayed only with herbicide or with herbicide on plants with treated seeds).
as §3, §4, §6

[4] = test system: spring barley, HORVS Montoya; assay: as above; set-up: key to Reduction [Difference]: % crop damage without safener minus % damage with safener; settings: 21 DAT; for HER effect + SAF / Reduction [%] / Reduction [Difference]: cloquintocet-mexyl 0, 5 g a.i./kg seed; for HER effect: without safener
Source text: as §7, §8, §9, §10, §11, §12, §3, §4, §5

[5] = 21 DAT, HER dose 8 g a.i./ha, cloquintocet-mexyl 100 g a.i./ha
[6] = HER dose 8 g a.i./ha, cloquintocet-mexyl 50 g a.i./ha
[7] = 10 DAT, HER dose 1 g a.i./ha, cloquintocet-mexyl 50 g a.i./ha
[8] = HER dose 32 g a.i./ha, cloquintocet-mexyl 100 g a.i./ha
[9] = HER dose 16 g a.i./ha, cloquintocet-mexyl 100 g a.i./ha
[10] = HER dose 1, 5 g a.i./ha, cloquintocet-mexyl 50 g a.i./ha

C=CC1(C(=O)NC2CC=C(C(=O)OC)C2)CC(c2cc(F)cc(F)c2)=NO1 (mixture of isomers) [Example 1.60]
HER effect + SAF [1, 5]: 0%
Reduction [Difference] [1, 5]: 80
HER effect + SAF [2, 6]: 70%
Reduction [%] [2, 6]: 25%
Reduction [Difference] [2, 6]: 23
HER effect ([2]; HER dose 8 g a.i./ha, without safener): 93%
HER effect + SAF [%] ([3]; HER dose 8 g a.i./ha): 10%
HER effect [%] ([3]; HER dose 8 g a.i./ha): 93%
HER effect + SAF [%] ([3]; HER dose 32 g a.i./ha): 10%
HER effect [%] ([3]; HER dose 32 g a.i./ha): 95%

CC1(C(=O)NC2C=CC(C(=O)O)C2)CC(c2cc(F)cc(F)c2)=NO1 (stereo not drawn) [Example 1.36]
Reduction [%] [1, 7]: 38%
Reduction [Difference] [1, 7]: 30
HER effect + SAF [%] ([3]; HER dose 1 g a.i./ha): 0%
HER effect [%] ([3]; HER dose 1 g a.i./ha): 85%
HER effect + SAF [%] ([3]; HER dose 4 g a.i./ha): 60%
Reduction [%] ([3]; HER dose 4 g a.i./ha): 35%
HER effect [%] ([3]; HER dose 4 g a.i./ha): 93%
HER effect + SAF [%] ([3]; HER dose 16 g a.i./ha): 70%
HER effect [%] ([3]; HER dose 16 g a.i./ha): 95%
HER effect + SAF ([4]; HER dose 1 g a.i./ha): 10%
Reduction [%] ([4]; HER dose 1 g a.i./ha): 67%
HER effect ([4]; HER dose 1 g a.i./ha): 30%
Reduction [%] ([4]; HER dose 4 g a.i./ha): 78%
Reduction [Difference] ([4]; HER dose 4 g a.i./ha): 73
HER effect + SAF ([4]; HER dose 16 g a.i./ha): 40%
Reduction [%] ([4]; HER dose 16 g a.i./ha): 58%
Reduction [Difference] ([4]; HER dose 16 g a.i./ha): 55

C=CC1(C(=O)NC2C=CC(C(=O)O)C2)CC(c2cc(F)cc(F)c2)=NO1 (stereo not drawn) [Example 1.58]
HER effect + SAF [2, 6]: 50%
Reduction [%] [2, 6]: 46%
Reduction [Difference] [2, 6]: 43
HER effect + SAF [2, 8]: 60%
Reduction [%] [2, 8]: 35%
Reduction [Difference] [2, 8]: 33
HER effect + SAF [%] ([3]; HER dose 2 g a.i./ha): 0%
HER effect [%] ([3]; HER dose 2 g a.i./ha): 85%
HER effect + SAF [%] ([3]; HER dose 8 g a.i./ha): 10%
HER effect [%] ([3]; HER dose 8 g a.i./ha): 93%
HER effect + SAF [%] ([3]; HER dose 32 g a.i./ha): 20%
Reduction [%] ([3]; HER dose 32 g a.i./ha): 78%
HER effect [%] ([3]; HER dose 32 g a.i./ha): 93%

CC(C)OC(=O)C1CC(NC(=O)C2(C(C)(F)F)CC(c3cc(F)cc(F)c3)=NO2)CO1 (mixture of isomers) [Example 1.88]
Reduction [%] ([1]; 21 DAT, HER dose 1, 5 g a.i./ha, cloquintocet-mexyl 50 g a.i./ha): 50%
HER effect + SAF [%] ([3]; HER dose 2 g a.i./ha): 20%
Reduction [%] ([3]; HER dose 2 g a.i./ha): 71%
HER effect [%] ([3]; HER dose 2 g a.i./ha): 70%
HER effect + SAF [%] ([3]; HER dose 8 g a.i./ha): 20%
HER effect [%] ([3]; HER dose 8 g a.i./ha): 85%
Reduction [%] ([4]; HER dose 2 g a.i./ha): 40%
HER effect + SAF ([4]; HER dose 8 g a.i./ha): 40%
Reduction [%] ([4]; HER dose 8 g a.i./ha): 53%
Reduction [Difference] ([4]; HER dose 8 g a.i./ha): 45

CC1(C(=O)NC2C=CC(C(=O)OCCCl)C2)CC(c2cc(F)cc(F)c2)=NO1 (mixture of isomers) [Example 1.47]
HER effect + SAF ([2]; HER dose 4 g a.i./ha, cloquintocet-mexyl 50 g a.i./ha): 0%
HER effect + SAF [2, 9]: 5%
Reduction [%] [2, 9]: 94%
Reduction [Difference] [2, 9]: 75
HER effect + SAF [%] ([3]; HER dose 4 g a.i./ha): 10%
HER effect [%] ([3]; HER dose 4 g a.i./ha): 30%
HER effect + SAF [%] ([3]; HER dose 16 g a.i./ha): 10%
HER effect [%] ([3]; HER dose 16 g a.i./ha): 80%
HER effect + SAF ([4]; HER dose 12 g a.i./ha): 0%
HER effect ([4]; HER dose 12 g a.i./ha): 20%
Reduction [Difference] ([4]; HER dose 48 g a.i./ha): 75

C=CC1(C(=O)NC2C=C(C(=O)OCC#N)OC2)CC(c2cc(F)cc(F)c2)=NO1 (stereo not drawn) [Example 1.91]
Reduction [%] [2, 10]: 71%
Reduction [Difference] [2, 10]: 50
Reduction [%] ([2]; HER dose 24 g a.i./ha, cloquintocet-mexyl 100 g a.i./ha): 75%
HER effect + SAF [%] ([3]; HER dose 1, 5 g a.i./ha): 20%
Reduction [%] ([3]; HER dose 1, 5 g a.i./ha): 71%
HER effect [%] ([3]; HER dose 1, 5 g a.i./ha): 70%
HER effect + SAF [%] ([3]; HER dose 6 g a.i./ha): 30%
HER effect [%] ([3]; HER dose 6 g a.i./ha): 90%
HER effect + SAF [%] ([3]; HER dose 24 g a.i./ha): 20%
Reduction [%] ([3]; HER dose 24 g a.i./ha): 75%
HER effect [%] ([3]; HER dose 24 g a.i./ha): 80%
